Laboratory results from patent US8815927B2, “Bivalent diazo bicyclic Smac mimetics and the uses thereof” (The Regents of the University of Michigan, priority 2009, dated 2014).

Assays:
[1] = target: XIAP Linker-BIR2-BIR3 Protein (Homo sapiens (Human), UniProt P98170); assay: Fluorescence polarization-based binding assay, XIAP Linker-BIR2-BIR3; settings: 3 nM XIAP protein (residues 120-356), 1 nM Smac2-F
From the text: An in vitro fluorescence polarization (FP) based binding assay was used to test the binding ability of the compounds of the present invention to XIAP linker-BIR2-BIR3 protein (Nikolovska-Coleska et al., Anal. Biochem. 374:87-98 (2008)).
For this assay a bivalent Smac peptido-mimetic labeled with a fluorescence tag (FAM), termed Smac2-F, was employed. […] The recombinant XIAP Linker-BIR2-BIR3 protein of human XIAP (residues 120-356) fused to His-tag was stable and soluble, and was used for the FP-based binding assay.
For the competitive binding experiments, a tested compound was incubated with 3 nM of XIAP protein (residues 120-356) and 1 nM of Smac2-F in the assay buffer (100 mM potassium phosphate, pH 7.5; 100 μg/ml bovine gamma globulin; 0.02% sodium azide) in black, round-bottom plates. For each experiment, the controls include XIAP and Smac2-F peptide (equivalent to 0% inhibition), and Smac-2F only (equal to 100% of inhibition). The polarization values are measured after 2 hours incubation, using the Ultra plate reader. The IC50 value, the inhibitor concentration at which 50% of bound tracer was displaced, is determined from the plot using nonlinear least-squares analysis. Curve fitting is performed using GraphPad Prism® software.

[2] = target: cIAP1 BIR3 Protein (Homo sapiens (Human), UniProt Q13490); assay: Fluorescence polarization-based competitive binding assay, cIAP-1 BIR3; settings: 10 nM cIAP-1 BIR3 protein, 2 nM SM5F tracer
Method: (§1) An in vitro fluorescence polarization (FP) based binding assay was used to test the binding ability of the compounds of the present invention to certain IAP proteins (Nikolovska-Coleska et al., Anal. Biochem. 332:261-73 (2004)).
(§2) Human cIAP-1 BIR3-only (residues 253-363) and cIAP2 BIR3-only (residues 238-349) were cloned into pHis-TEV vector, produced and purified using the same method as for the XIAP BIR3 protein.
(§3) In competitive binding experiments, 10 nM of cIAP-1 BIR3 protein and 2 nM of SM5F tracer were used. […] In competitive binding experiments, 25 nM of cIAP-2 BIR3 protein and 2 nM of SM5F tracer were used.
(§4) For each competitive binding experiment, polarization values were measured after 2-3 hours incubation using an Ultra plate reader. The IC50 value, the inhibitor concentration at which 50% of bound tracer was displaced, was determined from the plot using nonlinear least-squares analysis. Curve fitting was performed using the PRISM software (GraphPad Software, Inc., San Diego, Calif.). Ki value for each compound was calculated based upon the IC50 value using a previously reported algorithm and its associated computer program (Nikolovska-Coleska et al., Anal. Biochem. 332:261-73 (2004)).

[3] = system: MDA-MB-231 human breast cancer cell line; assay: Cancer cell growth inhibition, WST-8; type: cell-based; settings: MDA-MB-231, 96 h, 4 days
Method: (§5) The effect of the compounds of the present invention on the growth of various cancer cell lines was tested. Cells were seeded in 96-well flat bottom cell culture plates at a density of 3000 cells/well with a tested compound and incubated at 37° C. in an atmosphere of 95% air and 5% CO2 for 4 days. The rate of cell growth inhibition after treatment with different concentrations of the compound was determined using a WST-8 kit (2-(2-methoxy-4-nitrophenyl)-3-(4-nitrophenyl)-5-(2,4 disulfophenyl)-2H-tetrazolium monosodium salt; Dojindo Molecular Technologies, Inc., Gaithersburg, Md.). WST-8 was added at a final concentration of 10% to each well, and then the plates were incubated at 37° C. for 2-3 hrs. The absorbance of the samples was measured at 450 nm using a ULTRA Tecan Reader (Molecular Device). The concentration of the tested compound that inhibited cell growth by 50% (IC50) was calculated by comparing absorbance in untreated cells and the cells treated with the tested compound.

[4] = system: SK-OV-3 ovarian cancer cell line; assay: Cancer cell growth inhibition, WST-8; type: cell-based; settings: Homo sapiens, SK-OV-3, 96 h, 4 days
Method: as §5

[5] = target: cIAP2 BIR3 Protein (Homo sapiens (Human), UniProt Q13489); assay: Fluorescence polarization-based competitive binding assay, cIAP-2 BIR3; settings: 25 nM cIAP-2 BIR3 protein, 2 nM SM5F tracer
Method: as §1, §2, §3, §4

[6] = system: breast cancer MDA-MB-231 cell line; assay: Induction of cell death, trypan blue exclusion assay; type: cell-based, human; settings: MDA-MB-231, 48 hours, FIG. 1
Method: (§6) The ability of SM-1258 and SM-1267 to induce cell death was tested in the breast cancer MDA-MB-231 (FIG. 1) and ovarian cancer SK-OV-3 (FIG. 2) cell lines. Cells were treated with SM-1258 and SM-1267 for 48 hours and cell viability was determined using the trypan blue exclusion assay.

[7] = system: ovarian cancer SK-OV-3 cell line; assay: as above; type: cell-based, human; settings: SK-OV-3, 48 hours, FIG. 2
Method: as §6

[8] = target: XIAP BIR3 (Homo sapiens (Human), UniProt P98170); settings: cited from earlier work
Sequence of XIAP BIR3 (P98170 241-356): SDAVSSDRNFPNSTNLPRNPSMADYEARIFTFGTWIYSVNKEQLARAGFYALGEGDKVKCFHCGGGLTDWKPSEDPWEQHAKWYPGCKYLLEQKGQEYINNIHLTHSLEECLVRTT

Sequence of cIAP1 BIR3 Protein (Q13490 253-363): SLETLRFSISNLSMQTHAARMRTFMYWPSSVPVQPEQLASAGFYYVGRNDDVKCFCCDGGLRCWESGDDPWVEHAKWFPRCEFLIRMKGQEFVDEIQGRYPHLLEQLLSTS
Sequence of cIAP2 BIR3 Protein (Q13489 238-349): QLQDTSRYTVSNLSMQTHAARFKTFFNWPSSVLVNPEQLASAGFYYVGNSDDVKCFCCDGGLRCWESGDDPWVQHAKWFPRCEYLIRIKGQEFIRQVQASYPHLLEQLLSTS
Sequence of XIAP Linker-BIR2-BIR3 Protein (P98170 120-356): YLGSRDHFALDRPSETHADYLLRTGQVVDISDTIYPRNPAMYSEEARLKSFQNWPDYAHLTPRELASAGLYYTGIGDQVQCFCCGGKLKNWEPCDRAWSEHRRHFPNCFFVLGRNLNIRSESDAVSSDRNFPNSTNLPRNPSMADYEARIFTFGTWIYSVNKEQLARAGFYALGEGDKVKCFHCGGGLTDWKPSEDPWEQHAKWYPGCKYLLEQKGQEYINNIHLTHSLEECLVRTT

Molecule | IC50 [1] [nM] | IC50 [2] [nM] | IC50 [3] [nM] | IC50 [4] [nM] | IC50 [5] [nM] | induction of cell death [6] | induction of cell death [7] | Kd [8] [nM]
CN[C@@H](C)C(=O)N[C@H]1CN(C(=O)CCCCCCCCCCC(=O)N2CC[C@H]3CC[C@@H](c4nc5cccc(-c6ccccc6)c5[nH]4)N3C(=O)[C@@H](NC(=O)[C@H](C)NC)C2)CC[C@H]2CC[C@@H](c3nc4c(-c5ccccc5)cccc4[nH]3)N2C1=O [SM-1258] | < 10 | < 50 | < 10 | < 20 | – | – | – | –
CN[C@@H](C)C(=O)N[C@H]1CN(C(=O)CCCCOCCCCC(=O)N2CC[C@H]3CC[C@@H](c4nc5cccc(-c6ccccc6)c5[nH]4)N3C(=O)[C@@H](NC(=O)[C@H](C)NC)C2)CC[C@H]2CC[C@@H](c3nc4c(-c5ccccc5)cccc4[nH]3)N2C1=O [SM-1259] | < 10 | < 10 | < 10 | – | < 20 | – | – | –
CN[C@@H](C)C(=O)N[C@H]1CN(C(=O)CCCCC(=O)N2CC[C@H]3CC[C@@H](c4nc5cccc(-c6ccccc6)c5[nH]4)N3C(=O)[C@@H](NC(=O)[C@H](C)NC)C2)CC[C@H]2CC[C@@H](c3nc4c(-c5ccccc5)cccc4[nH]3)N2C1=O [SM-1265] | < 50 | < 10 | < 50 | – | < 10 | – | – | –
CN[C@@H](C)C(=O)N[C@H]1CN(C(=O)CCCCCCC(=O)N2CC[C@H]3CC[C@@H](c4nc5cccc(-c6ccccc6)c5[nH]4)N3C(=O)[C@@H](NC(=O)[C@H](C)NC)C2)CC[C@H]2CC[C@@H](c3nc4c(-c5ccccc5)cccc4[nH]3)N2C1=O [SM-1266] | < 10 | < 10 | < 10 | – | < 20 | – | – | –
CN[C@@H](C)C(=O)N[C@H]1CN(C(=O)CCCCCCCCC(=O)N2CC[C@H]3CC[C@@H](c4nc5cccc(-c6ccccc6)c5[nH]4)N3C(=O)[C@@H](NC(=O)[C@H](C)NC)C2)CC[C@H]2CC[C@@H](c3nc4c(-c5ccccc5)cccc4[nH]3)N2C1=O [SM-1267] | < 10 | < 10 | < 10 | – | < 50 | induced cell death | induced cell death | –
mature Smac protein: second mitochondria-derived activator of caspases, mature polypeptide (protein, UniProt Q9NR28 22-239, looked up) Diablo IAP-binding …: LCVPVVANFKKRCFSELIRPWHKTVTIGFGVTLCAVPIAQKSEPHSLSSEALMRRAVSLVTDSTSTFLSQTTYALIEAITEYTKAVYTLTSLYRQYTSLLGKMNSEEEDEVWQVIIGARAEMTSKHQEYLKLETTWMTAVGLSEMAAEAAYQTGADQASITARNHIQLVKLQVEEVHQLSRKAETKLAEAQIEELRQKTQEEGEERAESEQEAYLRED | – | – | – | – | – | – | – | 420
